The assay concerns the target T1, Amyloid-β (Aβ1-42) aggregates (Homo sapiens, UniProt P05067).
T1 construct: gene APP; Aβ1-42 (aggregates)
Nature of the assay: fluorescence enhancement titration (supported by far-UV CD and van't Hoff analysis). In kind it is binding.

T1 sequence (P05067 672-713): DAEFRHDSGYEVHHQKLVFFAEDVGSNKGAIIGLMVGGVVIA

Regarding `O=C(O)CN1C(=O)/C(=C/c2ccc(N(c3ccccc3)c3ccccc3)cc2)SC1=S` [mRA, triphenylamine rhodamine-3-acetic acid], the Kd stood at 341 ± 17 nM.

The Kd is the concentration at which binding is half-saturated.

The record behind these values is article PMC12408501, “A novel fluorescent probe, triphenylamine rhodamine-3-acetic acid (mRA) for the detection of Amyloid-β aggregates in Alzheimer's disease” (Frontiers in Neuroscience, 2025).
